Experimental data reported in patent US20150037832A1, “METHODS OF FACILITATING THE BIOCONVERSION OF CRUDE BIODIESEL-DERIVED GLYCEROL BY MICROORGANISMS” (priority 2011, published 2015).
Values joined by “and” are separate entries in the source; they are usually repeats but may differ in a detail not shown here. Equal entries are not always repeated. Where two headings read alike, the source gives them in different places.

Key:
[1] = tested on: Clostridium pasteurianum ATCC 6013; assay: Growth (optical density, μmax) and pH profiles of batch cultures; assay type: cell-based; details: for maximum specific growth rate, μmax: exponential log phase, 20 g/L glycerol and/or 10 g/L sugar; for effect on maximum optical density: 2 g/L sodium salt in 25 g/L pure glycerol
Experimental: (§1) Pre-cultures for glycerol utilization experiments were grown in RCM. The growth was monitored using optical density (λ=600 nm) and the cultures were used as inoculum once they reached the mid-exponential phase of growth. 100 mL of Biebl medium with appropriate carbon sources was inoculated with 10% inoculum and the contents were split equally into three in a 75 mL culture flask. All experiments were carried out in batch cultures and in triplicates. The cultures were monitored for growth, substrate utilization and product formation as mentioned earlier.
The co-fermentation of sugars was studied using hexose (dextrose) and pentose (D-xylose and L-arabinose) with 20 g/L of pure glycerol at a concentration of 10 g/L of the sugars, maintaining a 2:1 ratio of glycerol and sugars. Cells grown on glycerol or sugar alone were used as controls. […] Acetate and butyrate were studied at concentrations of 2 g/L with an initial glycerol concentration of 25 g/L of pure glycerol. Biotin was supplemented in the media at 0.8 mg/L with an initial concentration of 25 g/L of pure glycerol.

[2] = tested on: Clostridium pasteurianum ATCC 6013; assay: Product yields and substrate utilization of fermentation (HPLC); details: for effect of addition on butanol / product formation: added to glycerol fermentation; for 1,3-PDO yield / conversion: sole carbon source
Experimental: Freeze dried pure cultures of C. pasteurianum were revived using nutrient rich reinforced clostridal growth media (RCM) and glycerol stock cultures were prepared for future use. […] Pre-culture for glycerol utilization experiments were grown in RCM. The growth was monitored using optical density and the cultures were used as inoculum once they reached mid-exponential phase of growth. The growth experiments were conducted in 75 mL culture flasks containing 40 mL of the media and 5 mL of inoculum. Defined media was used for glycerol utilization. Unless otherwise specified purified glycerol or biodiesel derived crude glycerol were used as the sole carbon source. All experiments were conducted in an anaerobic chamber (95% N2 and 5% H2) at a temperature of 37° C. to ensure oxygen-free conditions.
as §1
The co-fermentation of sugars was studied using hexose (dextrose) and pentose (D-xylose and L-arabinose) with 20 g/L of pure glycerol at a concentration of 10 g/L of the sugars, maintaining a 2:1 ratio of glycerol and sugars. Cells grown on glycerol or sugar alone were used as controls.

[3] = tested on: Clostridium pasteurianum ATCC 6013; assay: Effect of impurities on glycerol fermentation; assay type: cell-based; details: for growth and product yield: salt at 2.5, 5, 7.5 and 10% (w/w) of initial glycerol; for growth and product yield / substrate utilization: 25 g/L pure glycerol; for substrate utilization: fatty acid sodium salt at 5%, 10% and 15% (w/w) of initial substrate
Experimental: Defined media was used for glycerol utilization.
To study the effect of impurities in crude glycerol, various concentrations of each impurity were added to the media containing 25 g/L pure glycerol. Methanol was added at 2.5 g/L and 5 g/L. Potassium chloride and potassium sulfate were added at 2.5, 5, 7.5 and 10% (w/w) of the initial glycerol concentration. The fatty acids were added in the form of sodium salts of steric acid, oleic acid and linoleic acid at 5, 10 and 15% (w/w) (of initial substrate conc.). The media containing 25 g/L of pure glycerol was used as the control. The effects of fatty acids were also studied by partially purifying the crude glycerol by precipitating the fatty acids using concentrated hydrochloric acid. The crude glycerol was diluted in deionized water at a ratio of 1:3 and hydrochloric acid was added to lower pH to between 2 and 3. At this pH the fatty acids precipitated and were removed by centrifugation at 5000 rpm for 15 minutes. The precipitated fatty acids were later analyzed using NMR by dissolving them in d-DMSO.

[4] = tested on: C. acetobutylicum; details: butyrate addition at 2 g/L, reported; cited from earlier work
[5] = tested on: Clostridium pasteurianum ATCC 6013
Experimental: The cell membrane was extracted using dichloromethane/methanol mixtures. The membrane extracted in dichloromethane was separated by evaporating the solvents under a gentle nitrogen stream. This dry film of the membrane was used for further analysis.
The dry film of the membrane was dissolved in deuterated chloroform for NMR analysis. Synthetic lipids such as Diaplmitoylphosphotidylcholine (DPPC) and Dioleylphosphotidylcholine (DOPC) were used as standards for NMR analysis. The dry films of the membrane lipids were labeled with DPH (500:1) and made into liposomes for analyzing the stability of the membrane by studying the fluorescence anisotropy using a Perkin-Elmer LS50B.

[6] = L-arabinose added to glycerol, vs glycerol alone
[7] = endogenously produced butanol, defined media, varied glycerol concentration
[8] = exogenous butanol 2 g/L to 20 g/L, defined media with 50 g/L glucose and RCM

O=C[C@H](O)[C@@H](O)[C@H](O)CO [D-xylose]
maximum specific growth rate, μmax [1]: 0.794 ± 0.390 day⁻¹ | acetate, 1,3-PDO and ethanol as share of the overall products ([2]; D-xylose as sole carbon source): 88% | product formation ([2]; D-xylose as sole carbon source): 0.78 g/g | effect of addition on butanol / product formation [2]: did not result in an increase in the formation of any of the products | utilization of D-xylose ([2]; addition of D-xylose to glycerol fermentation, 2:1): 25±16% | D-xylose left unconsumed in the media ([2]; co-fermentation of glycerol with xylose): more than 90%

OCC(O)CO [Glycerol, glycerol]
maximum specific growth rate, μmax [1]: 1.562 ± 0.118 day⁻¹ | butanol yield ([2]; control experiment with glycerol): 22 % (g/g) | 1,3-PDO yield / conversion ([2]; control): 20 % (g/g)

O=C[C@H](O)[C@@H](O)[C@@H](O)CO [L-arabinose]
maximum specific growth rate, μmax [1]: 0.933 ± 0.054 day⁻¹ | ethanol yield ([2]; L-arabinose added to glycerol): 0.10 g/g | increase of 1,3-PDO yield [2, 6]: 65% | increase of ethanol yield [2, 6]: 5 fold | 1,3-PDO and ethanol as share of overall products ([2]; L-arabinose as carbon source): 85% | effect of addition on butanol / product formation [2]: does not affect the yield of butanol | ratio of butanol/1,3-PDO ([2]; addition of L-arabinose to glycerol): 0.64 | 1,3-PDO maximum yield ([2]; control, L-arabinose sole carbon source): 36.5 % (g/g) | 1,3-PDO yield / conversion ([2]; control): 28 % (g/g) | Ethanol and 1,3-PDO as share of the products yielded ([2]; cultures on arabinose): ~86 % (mol/mol) | 1,3-PDO yield ([2]; sugar 10 g/L added as co-substrate to 20 g/L glycerol, with respect to glycerol): 0.33 g/g

[Cl-].[K+] [Potassium chloride]
growth and product yield [3]: no detrimental effect on growth and product yield

CC(=O)[O-].[Na+] [acetate, sodium acetate]
effect on maximum optical density [1]: small increase in the maximum optical density | decrease in 1,3-PDO production [2]: 33% | increase in butanol formation [2]: ~25% and 23%

O=C(O)CCCC[C@@H]1SC[C@@H]2NC(=O)N[C@@H]21 [biotin]
increase in butanol formation ([2]; supplement (acetate 2 g/L, biotin 0.8 mg/L) in 25 g/L pure glycerol, vs control): 18% and ~25%

CCCC(=O)[O-].[Na+] [butyrate, sodium butyrate]
effect on maximum optical density [1]: slightly lower maximum optical density | lowering of the maximum optical density ([1]; butyrate 2 g/L in 25 g/L pure glycerol): 20% | increase of butanol production [4]: 1.6 folds | effect of addition on butanol / product formation [2]: did not increase butanol production

CO [methanol]
growth or product formation during the fermentation of glycerol ([3]; methanol at 2.5 g/l and 5 g/L in media with 25 g/L pure glycerol): no reduction in growth or product formation

O=S(=O)([O-])[O-].[K+].[K+] [potassium sulfate]
growth and product yield [3]: no detrimental effect on growth and product yield

CCCCC/C=C\C/C=C\CCCCCCCC(=O)[O-].[Na+] [sodium linoleate]
substrate utilization [3]: completely inhibited

CCCCCCCC/C=C\CCCCCCCC(=O)[O-].[Na+] [sodium oleate]
substrate utilization [3]: not affected

CCCCCCCCCCCCCCCCCC(=O)[O-].[Na+] [sodium stearate]
substrate utilization [3]: not affected

butanol
anisotropy of membrane [5, 7]: corresponding increase in anisotropy | degree of unsaturation of membrane fatty acids [5, 7]: a decrease in the degree of unsaturation | anisotropy of membrane [5, 8]: found to decrease | degree of unsaturation of membrane fatty acids [5, 8]: observed to increase
